# According to patent US20170066795A1, “SOLID PRODRUG FORMS OF 2'-CHLORO-2'-METHYL URIDINE FOR HCV” (IDENIX PHARMACEUTICALS LLC, priority 2014, published 2017):
# Test system: Genotype 1 HCV
# Test: Example 3 Part I: Compound I QD x 7 days in treatment-naïve Genotype 1 HCV-infected subjects, viral load (HCV RNA)
# Format: in vivo
# Conditions: 300 mg/day for 7 days
# Procedure: This part was a randomized, double-blind, placebo-controlled, parallel group study in treatment-naïve, Genotype 1 HCV-infected subjects. Thirty (30) subjects were randomized across the treatment arms specified below.
# Dosing, sampling, and analyses for Parts I and II were made according to Tables A and B.
# Compound I was provided as size 0, white, hard hydroxypropyl methylcellulose (HPMC) capsules for oral administration at 5 mg, 25 mg and 50 mg strengths. The same powder blend containing 33.3% weight/weight (w/w) Compound I, a diluent, and a disintegrant is used to fill the capsules for all dose strengths. Matching placebo capsules will also be provided. Storage conditions will be provided on the study drug container label.
# Dosing occurred between approximately 08:00 AM and 10:00 AM on each dosing day. Water was permitted ad libitum except for 1 hour before and after dosing. Dosing was immediately followed by administration of 240 mL (8 oz.) of water. Meals and beverages served within 24 hours prior to and post dosing were xanthine-free and caffeine-free. Grapefruit and grapefruit juice were not allowed within 7 days before reporting to the clinic on Day −1 and through the end of the study.
smiles,measurement,setting,value
CC(C)OC(=O)[C@@H](C)N[P@@](=O)(OC[C@H]1O[C@@H](n2ccc(=O)[nH]c2=O)[C@](C)(Cl)[C@@H]1O)Oc1ccccc1 [Compound I],response in genotype 1a versus genotype 1b HCV infection,,similar
same,mean maximal viral load reduction,8 genotype 1 HCV-infected patients,4.2 logs
